Results taken from patent US20230226061A1, “COMBINATION CANCER THERAPY WITH DYRK1 INHIBITORS AND INHIBITORS OF THE RAS-RAF-MEK-ERK (MAPK) PATHWAY” (Felicitex Therapuetics, Inc., priority 2022, published 2023).
Where two headings read alike, the source gives them in different places.

Assays:
[1] = system: NSCLC H23 cells (KRAS-G12C); experiment: Cell viability assay in 2D cell culture (CellTiter-Glo), H23; conditions: for EC50: Homo sapiens, NCI-H23, 96 h
[2] = system: NSCLC A549 cells (KRAS-G12S); experiment: Cell viability assay in 2D cell culture (CellTiter-Glo), A549; conditions: for EC50: A549, 96 h
[3] = system: NSCLC H2122 cells (KRAS-G12C); experiment: Cell viability assay in 2D cell culture (CellTiter-Glo), H2122
[4] = system: H2122 NSCLC cells (KRAS G12C); experiment: FACS analysis of cell cycle distribution (acridine orange), H2122; type: cell-based
[5] = system: colon cancer SW620 cells (G12V); experiment: FACS analysis of cell cycle distribution (acridine orange), SW620; type: cell-based; conditions: SW620, 5 μM Compound I-7 and 20 nM trametinib, 24 hours
Procedure: SW620 cells were cultured, treated, and analyzed as described in Example 1. The results when different concentrations of trametinib, Compound I-7, or both trametinib and Compound I-7 are present are shown in FIG. 10.

[6] = system: DYRK1B, MAPK, p27 in SW620 cells; experiment: Western blot analysis of protein expression in SW620 cells; type: cell-based; conditions: SW620, 20 nM trametinib and 5 μM compound I-7, vs trametinib alone
Procedure: For Western Blot analysis cells were seeded into 6-well plates at 5×10^5-9×10^5 cells/well (depending on the cell size and rate of proliferation), allowed to attach for 24 hours, then treated with compounds for 24 hours, and harvested. Immunoblotting was performed using conventional techniques, as described in Cell Signaling Technologies Western Blotting protocol (www.cellsignal.com).
Antibodies used for blotting were from Cell Signaling Technology (CST): DYRK1B (D40D1) Rabbit mAb #5672; β-Actin (13E5) Rabbit mAb #4970; Anti-rabbit IgG, HIRP-linked Antibody #7074. The Primary Antibody Dilution Buffer 1×TBST with 5% BSA (CST #9998) was used. For detection, SignalFire™ ECL Reagent (CST #6883) was used.
The expression levels of DYRK1B, ph-t202 MAPK, total MAPK, ph-S10 p27, total p27 and β-actin in SW620 cells following the 24 hours treatment with trametinib or combination of trametinib and compound I-7 as observed by Western blot analysis are shown in FIG. 13. The expression of DYRK1B protein was compared to that in untreated cells incubated in regular growth medium containing FBS (FBS+) or serum free medium (FBS−), single treatment with trametinib to the treatment with combination of trametinib and compound I-7.

[7] = system: quiescent and proliferating pancreatic cancer cells; conditions: reported by Ewton et al. 2011; cited from earlier work
[8] = system: NSCLC H358 cells (KRAS-G12C); experiment: Cell viability assay in 2D cell culture (CellTiter-Glo), H358
[9] = system: ovarian cancer OVCAR cells (wild KRAS); experiment: Cell viability assay in 2D cell culture (CellTiter-Glo), OVCAR; type: cell-based; conditions: for EC50: 96 h
[10] = system: NSCLC H1975 cells (wild-type KRAS); experiment: Cell viability assay in 2D cell culture (CellTiter-Glo), H1975; type: cell-based; conditions: for EC50: Homo sapiens, NCI-H1975, 96 h, H1975, 96 h
[11] = system: 3D spheroids of NSCLC H23 cells (KRAS-G12C); experiment: Cell viability assay in 3D cell culture (spheroids), H23; type: cell-based; conditions: Homo sapiens, NCI-H23, H23 3D spheroids, read-out: EC50 for trametinib
Procedure: For the treatment, 50 μL of media was removed from each well and replaced with fresh media with compounds. […] If the treatment time exceeded 4 days, 70 μL of media in each well was replaced with fresh media containing the test compound every fourth day. Each treatment was performed in duplicate. […] Prior to analysis, the spheroids were photographed at 50× magnification.
For the treatment, 50 μL of media was removed from each well and replaced with fresh media with compounds. […] If the treatment time exceeded 4 days, 70 μL of media in each well was replaced with fresh media containing the test compound every fourth day. Each treatment was performed in duplicate. […] Prior to analysis, the spheroids were photographed at 50× magnification

[12] = H2122, 5 μM Compound I-7 and 100 nM AMG-510, FBS+
[13] = H2122, 5 μM Compound I-7 and 100 nM MRTX 849, 48 hours

CCOC(=N)c1nc2ccc3ncnc(Nc4cc(F)c(F)cc4Cl)c3c2s1 [Compound I-7]
effect of combination on cytotoxicity ([1]; H23, combined with trametinib): synergistic | effect of combination on cytotoxicity of selumetinib ([2]; A549, combined with selumetinib): significant increase in cytotoxicity | effect of combination on cytotoxicity ([2]; A549, combined with trametinib): synergistic | effect of combination on cytotoxicity ([3]; H2122, combined with AMG-510): synergistic | effect of combination on cytotoxicity ([3]; H2122, combined with MRTX-849): synergistic | apoptotic cells (sub-G0 fraction) [4, 12]: large increase in apoptotic cells | proportion of quiescent cells [4, 12]: no such increase in proportion of quiescent cells was observed | apoptotic cells (sub-G0 population) [4, 13]: significant increases in apoptotic cells | fraction of cells in G0 [4, 13]: reduced the fraction of cells in G0 | apoptotic cells (sub-G0 population) [5]: significant increases in apoptotic cells | fraction of cells in G0 ([5]; vs trametinib alone): reduced the fraction of cells in G0 | phosphorylation of p27 (Western blot) [6]: decrease of the phosphorylation of p27 | total levels of p27 (Western blot) [6]: decrease

COc1ncc2cc(C(=O)Nc3cc(C(=O)NCc4cccc(Cl)c4)ccc3Cl)c(=O)[nH]c2n1 [TC-S 7004]
effectiveness against quiescent and proliferating cancer cells in vitro [7]: effective against both quiescent and proliferating cancer cells

c1cncc(-c2ccnc3ccc(-c4c[nH]c5ncccc45)cc23)c1 [Compound II-1]
effect of combination on cytotoxicity ([8]; H358, combined with AMG-510): synergistic | effect of combination on cytotoxicity ([8]; H358, combined with MRTX-849): synergistic | effect of combination on cytotoxicity ([9]; combined with selumetinib): synergistic effect | effect of combination on cytotoxicity ([10]; H1975, combined with selumetinib): synergistic effect

CC(=O)Nc1cccc(-n2c(=O)n(C3CC3)c(=O)c3c(Nc4ccc(I)cc4F)n(C)c(=O)c(C)c32)c1 [trametinib]
EC50 ([1]; read-out: EC50 for trametinib, H23 2D, 96 h, Compound I-7 not present): 19.2 nM | EC50 ([1]; read-out: EC50 for trametinib, H23 2D, 96 h, Compound I-7 present at 0.12 μM): 15.5 nM | EC50 ([1]; read-out: EC50 for trametinib, H23 2D, 96 h, Compound I-7 present at 3.3 μM): 11.8 nM | EC50 ([11]; Compound I-7 not present): 1.7 nM | EC50 ([11]; Compound I-7 present at 5 μM): 1.2 nM | EC50 ([11]; Compound I-7 present at 10 μM): < 0.01 nM | EC50 ([2]; read-out: EC50 for trametinib, Compound I-7 not present): 16.2 nM | EC50 ([2]; read-out: EC50 for trametinib, Compound I-7 present at 2.2 μM): 16 nM | EC50 ([2]; read-out: EC50 for trametinib, Compound I-7 present at 6.73 μM): 3.2 nM

Cn1cnc2c(F)c(Nc3ccc(Br)cc3Cl)c(C(=O)NOCCO)cc21 [selumetinib]
EC50 ([2]; read-out: EC50 for selumetinib, Compound I-7 not present): 2350 nM | EC50 ([2]; read-out: EC50 for selumetinib, Compound I-7 present at 3 μM): 920 nM | EC50 ([2]; read-out: EC50 for selumetinib, Compound I-7 present at 6 μM): 10 nM | EC50 ([9]; Compound I-7 not present, highest selumetinib concentration 50 μM): 238000 nM | EC50 ([9]; Compound I-7 present at 1 μM, read-out: EC50 for selumetinib): 173000 nM | EC50 ([9]; Compound I-7 present, read-out: EC50 for selumetinib): < 100 nM | EC50 ([10]; Compound II-1 not present, highest selumetinib concentration 20 μM): 59000 nM | EC50 ([10]; Compound II-1 present at 1 μM, read-out: EC50 for selumetinib): 130 nM
